Results as given in PubChem BioAssay AID1919000 (Molecular Pharmacology Branch, DTP, NCI, 2023).
Where “and” joins values, the source holds several entries; their conditions need not be identical. Identical values can stand only once.

System: 653999-131-R-J2-PDC complex spheroids, growth % test/control
Assay: Anticancer human tumor 653999-131-R-J2-PDC patient-derived lung adenocarcinoma cell line growth inhibition [AhR]
Settings: for viability, T/C: stronger effect = lower value
In short: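 Spheroids combined tumor cells with HUVEC endothelial cells and human MSCs as stroma. AhR antagonists were paired with standard or investigational drugs, each dosed in half-log steps down from near clinical Cmax, or from 10 microM where Cmax was unknown.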

[1] = curve of first compound, second compound 0.1 µM
[2] = curve of first compound, second compound 0.316 µM
[3] = curve of first compound, second compound 1 µM
[4] = curve of first compound, second compound 3.16 µM
[5] = curve of first compound, second compound 10 µM
[6] = second compound 0.1 µM, first compound 0.0316 µM
[7] = second compound 0.1 µM, first compound 0.1 µM
[8] = second compound 0.1 µM, first compound 0.316 µM
[9] = second compound 0.1 µM, first compound 1 µM
[10] = second compound 0.1 µM, first compound 3.16 µM
[11] = second compound 0.1 µM, first compound 10 µM
[12] = second compound 0.316 µM, first compound 0.0316 µM
[13] = second compound 0.316 µM, first compound 0.1 µM
[14] = second compound 0.316 µM, first compound 0.316 µM
[15] = second compound 0.316 µM, first compound 1 µM
[16] = second compound 0.316 µM, first compound 3.16 µM
[17] = second compound 0.316 µM, first compound 10 µM
[18] = second compound 1 µM, first compound 0.0316 µM
[19] = second compound 1 µM, first compound 0.1 µM
[20] = second compound 1 µM, first compound 0.316 µM
[21] = second compound 1 µM, first compound 1 µM
[22] = second compound 1 µM, first compound 3.16 µM
[23] = second compound 1 µM, first compound 10 µM
[24] = second compound 3.16 µM, first compound 0.0316 µM
[25] = second compound 3.16 µM, first compound 0.1 µM
[26] = second compound 3.16 µM, first compound 0.316 µM
[27] = second compound 3.16 µM, first compound 1 µM
[28] = second compound 3.16 µM, first compound 3.16 µM
[29] = second compound 3.16 µM, first compound 10 µM
[30] = second compound 10 µM, first compound 0.0316 µM
[31] = second compound 10 µM, first compound 0.1 µM
[32] = second compound 10 µM, first compound 0.316 µM
[33] = second compound 10 µM, first compound 1 µM
[34] = second compound 10 µM, first compound 3.16 µM
[35] = second compound 10 µM, first compound 10 µM
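Further: spheroids exposed to agents for seven days.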
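Wherever viability, T/C is given: 100% = DMSO vehicle control viability.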

Molecule `Nc1ccccc1NC(=O)c1ccc(CNC(=O)OCc2cccnc2)cc1` + Cc1ccccc1N=Nc1ccc(NC(=O)c2ccnn2C)c(C)c1 has an IC50 [1] of 2.5 µM, an IC50 [2] of 3.46 µM and an IC50 [3] of 2.27 µM. For the same molecule, the IC50 [4] was 1.9 µM, the IC50 [5] was 3.48 µM and the viability, T/C [6] was 91.9%. It also gave a viability, T/C [7] of 83%, a viability, T/C [8] of 79.2% and a viability, T/C [9] of 73.7%. For the same molecule, the viability, T/C [10] was 43.4%, the viability, T/C [11] was 12.3% and the viability, T/C [12] was 91.4%. It also gave a viability, T/C [13] of 83.5%, a viability, T/C [14] of 69% and a viability, T/C [15] of 64.9%. It also gave a viability, T/C [16] of 62.3%, a viability, T/C [17] of 14.1% and a viability, T/C [18] of 83.8%. It also gave a viability, T/C [19] of 85.1%, a viability, T/C [20] of 70.4% and a viability, T/C [21] of 58.5%. For the same molecule, the viability, T/C [22] was 50.4%, the viability, T/C [23] was 13.9% and the viability, T/C [24] was 89.3%. For the same molecule, the viability, T/C [25] was 84.7%, the viability, T/C [26] was 70.2% and the viability, T/C [27] was 54.4%. It also gave a viability, T/C [28] of 50.5%, a viability, T/C [29] of 13.3% and a viability, T/C [30] of 86.4%. The viability, T/C [31] was 81.6%, the viability, T/C [32] was 71.4% and the viability, T/C [33] was 59.6%. The viability, T/C [34] was 63.1% and the viability, T/C [35] was 13.4%.

`CCc1c2c(nc3ccc(O)cc13)-c1cc3c(c(=O)n1C2)COC(=O)[C@]3(O)CC` + Cc1cncc(-c2nc(NCCc3c[nH]c4ccccc34)c3ncn(C(C)C)c3n2)c1 was tested, and the IC50 [1] was 0.00427 µM, the IC50 [2] was 0.00322 µM and the IC50 [3] was 0.00417 µM. The IC50 [4] was 0.00521 µM, the IC50 [5] was under 0.000949 µM and the viability, T/C (second compound 0.1 µM, first compound 0.000949 µM) was 62.3%. For the same molecule, the viability, T/C (second compound 0.1 µM, first compound 0.003 µM) was 56.1%, the viability, T/C (second compound 0.1 µM, first compound 0.00949 µM) was 38.4% and the viability, T/C (second compound 0.1 µM, first compound 0.03 µM) was 27.4%. The viability, T/C (second compound 0.1 µM, first compound 0.0949 µM) was 19.4%, the viability, T/C (second compound 0.1 µM, first compound 0.3 µM) was 13.7% and the viability, T/C (second compound 0.316 µM, first compound 0.000949 µM) was 59.1%. For the same molecule, the viability, T/C (second compound 0.316 µM, first compound 0.003 µM) was 50.6%, the viability, T/C (second compound 0.316 µM, first compound 0.00949 µM) was 39.1% and the viability, T/C (second compound 0.316 µM, first compound 0.03 µM) was 26.2%. For the same molecule, the viability, T/C (second compound 0.316 µM, first compound 0.0949 µM) was 18.3%, the viability, T/C (second compound 0.316 µM, first compound 0.3 µM) was 13% and the viability, T/C (second compound 1 µM, first compound 0.000949 µM) was 67.2%. It also gave a viability, T/C (second compound 1 µM, first compound 0.003 µM) of 55%, a viability, T/C (second compound 1 µM, first compound 0.00949 µM) of 38.5% and a viability, T/C (second compound 1 µM, first compound 0.03 µM) of 28.1%. It also gave a viability, T/C (second compound 1 µM, first compound 0.0949 µM) of 19.4%, a viability, T/C (second compound 1 µM, first compound 0.3 µM) of 13.6% and a viability, T/C (second compound 3.16 µM, first compound 0.000949 µM) of 58%. The viability, T/C (second compound 3.16 µM, first compound 0.003 µM) was 58.1%, the viability, T/C (second compound 3.16 µM, first compound 0.00949 µM) was 42.6% and the viability, T/C (second compound 3.16 µM, first compound 0.03 µM) was 28%. The viability, T/C (second compound 3.16 µM, first compound 0.0949 µM) was 18.8%, the viability, T/C (second compound 3.16 µM, first compound 0.3 µM) was 12.3% and the viability, T/C (second compound 10 µM, first compound 0.000949 µM) was 36.4%. The viability, T/C (second compound 10 µM, first compound 0.003 µM) was 32.3%, the viability, T/C (second compound 10 µM, first compound 0.00949 µM) was 25.5% and the viability, T/C (second compound 10 µM, first compound 0.03 µM) was 16%. The viability, T/C (second compound 10 µM, first compound 0.0949 µM) was 11.2% and the viability, T/C (second compound 10 µM, first compound 0.3 µM) was 8.25%.

`Nc1ccccc1NC(=O)c1ccc(CNC(=O)OCc2cccnc2)cc1` + CC(CO)NC(=O)c1cc(-c2ccc(Cl)cc2)nn(-c2cnn(C)c2)c1=O gave an IC50 [1] of 3.83 µM, an IC50 [2] of 3.53 µM and an IC50 [3] of 2.78 µM. For the same molecule, the IC50 [4] was 3.49 µM, the IC50 [5] was 2.66 µM and the viability, T/C [6] was 86.6%. For the same molecule, the viability, T/C [7] was 93%, the viability, T/C [8] was 78.1% and the viability, T/C [9] was 65.4%. For the same molecule, the viability, T/C [10] was 65.2%, the viability, T/C [11] was 13% and the viability, T/C [12] was 87.5%. The viability, T/C [13] was 85.2%, the viability, T/C [14] was 83.7% and the viability, T/C [15] was 68.7%. The viability, T/C [16] was 55.5%, the viability, T/C [17] was 15.6% and the viability, T/C [18] was 88%. For the same molecule, the viability, T/C [19] was 94.3%, the viability, T/C [20] was 76.1% and the viability, T/C [21] was 65.5%. For the same molecule, the viability, T/C [22] was 50.7%, the viability, T/C [23] was 14.2% and the viability, T/C [24] was 93.3%. For the same molecule, the viability, T/C [25] was 95.6%, the viability, T/C [26] was 84.5% and the viability, T/C [27] was 70%. It also gave a viability, T/C [28] of 57.5%, a viability, T/C [29] of 12.9% and a viability, T/C [30] of 91%. It also gave a viability, T/C [31] of 101%, a viability, T/C [32] of 76.2% and a viability, T/C [33] of 67.2%. The viability, T/C [34] was 50.3% and the viability, T/C [35] was 6.65%.

`NS(=O)(=O)OCC1CC(n2ccc3c(NC4CCc5ccccc54)ncnc32)CC1O` (configuration not stated) + Cc1ccccc1N=Nc1ccc(NC(=O)c2ccnn2C)c(C)c1 showed an IC50 [1] of over 10 µM, an IC50 [2] of over 10 µM and an IC50 [3] of over 10 µM. It also gave an IC50 [4] of over 10 µM, an IC50 [5] of over 10 µM and a viability, T/C [6] of 111%. The viability, T/C [7] was 120%, the viability, T/C [8] was 118% and the viability, T/C [9] was 124%. For the same molecule, the viability, T/C [10] was 88.9%, the viability, T/C [11] was 64.7% and the viability, T/C [12] was 114%. For the same molecule, the viability, T/C [13] was 105%, the viability, T/C [14] was 123% and the viability, T/C [15] was 129%. For the same molecule, the viability, T/C [16] was 72.7%, the viability, T/C [17] was 61.3% and the viability, T/C [18] was 115%. It also gave a viability, T/C [19] of 119%, a viability, T/C [20] of 124% and a viability, T/C [21] of 124%. For the same molecule, the viability, T/C [22] was 63.3%, the viability, T/C [23] was 61.4% and the viability, T/C [24] was 125%. It also gave a viability, T/C [25] of 109%, a viability, T/C [26] of 142% and a viability, T/C [27] of 93.4%. The viability, T/C [28] was 61.8%, the viability, T/C [29] was 62.3% and the viability, T/C [30] was 129%. For the same molecule, the viability, T/C [31] was 118%, the viability, T/C [32] was 115% and the viability, T/C [33] was 63.7%. For the same molecule, the viability, T/C [34] was 56.7% and the viability, T/C [35] was 60%.

In the case of `NS(=O)(=O)OCC1CC(n2ccc3c(NC4CCc5ccccc54)ncnc32)CC1O` (configuration not stated), the viability, T/C (compound 0.0316 µM) is reported as 101% and 97.7% and 115%, the viability, T/C (compound 0.1 µM) is reported as 98.7% and 110% and 114% and the viability, T/C (compound 0.316 µM) is reported as 89.3% and 95.5% and 96%. The viability, T/C (compound 1 µM) was 89.8% and 104% and 105%, the viability, T/C (compound 3.16 µM) was 91.9% and 83.5% and 78.4% and the viability, T/C (compound 10 µM) was 53.4% and 61.8% and 55.4%. The IC50 (curve of compound) was over 10 µM.
